Measured values reported in patent US8278265B2, “Methods, kits and compositions comprising crotamine” (Fundacao de Amparo a Pesquisa do Estado de Sao Paulo—FAPESP, priority 2005, dated 2012).
Ends that are not written are not given here.

What was measured:
mice = assay: Paralysis of the hind legs of mice after intraperitoneal injection; type: in vivo; settings: sublethal dose, 50 μg of the conjugate (2.5 mg of toxin/kg) intraperitoneally, mouse
Description: When injected intraperitoneally, crotamine causes a quick paralysis, in less than 15 minutes, of the hind legs of mice, which is the typical physiological effect of this toxin.
Crotamine (1 mg) was suspended in 1 ml buffer (100 mM sodium carbonate/bicarbonate, pH 9.3) and conjugated to the fluorescent dye Cy3, a cyanine derivative supplied as a bifunctional form of an NHS-type ester in the Fluorolink Cy3 dye pack kit (Amersham Biosciences). To verify if Cy3-crotamine is biologically active, a sublethal dose, 50 μg of the conjugate (corresponding to 2.5 mg of toxin/kg) was intraperitoneally injected into a mouse. The crotamine linked to Cy3 complex caused the typical paralysis response of the hind legs in less than 15 minutes after injection.

B16F10 cells tumor = assay: Tumor labeling by cy3-crotamine; type: in vivo, Balb/c mouse; settings: 5 μg/animal intraperitoneal, 24 hours after
Description: The cells were maintained in Dulbecco's modified Eagle's cell culture medium (DMEM; Invitrogen, Carlsbad, Calif.) supplemented with 15% fetal calf serum (FCS; Invitrogen). The cells were kept at 37° C. with humidity and 5% CO2. After preparing a cell suspension with about 5×10^6 cells/ml of PBS [phosphate buffered solution], approximately 0.2 ml of this suspension was subcutaneously or endovenously (retroorbital injection) injected into each Balb/c mouse, of 4 to 6 weeks-old with body weight between 16 to 20 g. For negative control, the animals were injected with 0.2 ml of PBS. Before setting up the experiments, the animals were kept under 12 hour light-dark cycle, and were allowed to have water and food ad libitum. All animals were caged and handled under ethical conditions according to international rules of animal care, stated by the International Animal Welfare Recommendations, and in accordance with the Guidelines for the Use of Animals in Biochemical Research
About 8 to 12 days after subcutaneous injection of B16F10 cells, the visible ‘melanoma’ tumors were removed and analyzed.
To observe the accumulation of fluorescently labeled crotamine [Cy3-crotamine] into tumors, injected mice were treated by a single intraperitoneal injection of 5 μg of cy3-crotamine/animal. 24 hours after, the animals were sacrificed and the ‘melanoma’ tumors and internal tissues were removed and analyzed [frozen/Tissue-Tek and Paraplast block preparations]. The frozen slices were stained with DAPI and analyzed by confocal microscopy. […]
To observe the accumulation of fluorescently labeled crotamine [Cy3-crotamine] into tumors, injected mice were treated by a single intraperitoneal injection of 5 μg of cy3-crotamine/animal. 24 hours after, the animals were sacrificed and the internal tissues (including those showing metastasis) were removed and analyzed [frozen/Tissue-Tek and Paraplast block preparations]. The frozen slices were stained with DAPI and analyzed by confocal microscopy.

blastocyts = assay: Internalization of Cy3-conjugated crotamine in blastocysts in vitro; type: cell-based, murine; settings: cell cytoplasm, FIG. 1
Description: Embryonic bodies (EBs) were obtained by the hanging drop method, as described above, using culture medium containing crotamine at various concentrations (100 μM to 0.1 μM), changing the medium every two to three days. To analyze the crotamine location in EBs under development, crotamine was substituted with crotamine linked to Cy3 (Cy3-crotamine) during the final 24 hours of incubation. Compact murine morulae (8-16 cells) were obtained from the oviduct and cultivated for 24 hours at 37° C. in 5% CO2, in individual microwells of V-bottom plates (Costar) with […] microwells in M16 medium (supplier: Sigma) and Cy3-crotamine (1-0.1 μM). After 24 hours of culture, normally developed blastocyst numbers were compared within the control and the experimental group.

centrosome = assay: Marker for centrosome; type: cell-based; settings: cells from the peritoneal liquid of mice and ES cells, FIG. 9
Description: (§1) To analyze the specific binding of Cy3-crotamine to chromatin and centrosome (a pair of small organelles named the centrioles), the same experimental procedure, as described above, was used, the sole difference consisting in the pre-treatment of ES cells and murine embryonic fibroblasts with 1 μM of free crotamine, followed by treatment with the conjugated crotamine, Cy3-crotamine, for 15 minutes more. A similar experiment was conducted in vivo, by injecting in mice both the conjugated and the free crotamine. As a control, 1 μM of Cy3-crotamine was used and incubated for 15 minutes. For the confocal microscopy analysis, cells were prepared as described above. Experiments with animals were carried out according to the international ethical recommendations for the use of animals.
Embryonic bodies, obtained according to the protocol as described above, after three days, adhered to small glass slides. On the following day, actively proliferating cells were simultaneously labeled with 5-bromo-2′-deoxyuridine (BrDU) and Cy3-crotamine. BrDU-labeled cell detection by the monoclonal antibody anti-BrDU (clone BU-1) was made according to manufacturer's recommendations (Amersham-Pharmacia Biotech). The secondary antibody was conjugated to the fluorescent compound FITC. […] Microscope slides were assembled in a PBS/glycerol solution (1:1) and analysed in a confocal microscope. […]

[1] = tested on: cells from the peritoneal liquid and from the murine bone marrow; assay: In vivo incorporation of Cy3-crotamine after intraperitoneal injection; design: species or system CD-1 strain mice
Description: In vitro assay: Semiconffluent cultures of pluripotent and differentiation ES cells (homogeneous cell population), as well as other cell cultures of normal and tumor origin, were kept in small laminar slides placed in 24-well plates containing appropriate culture medium. Cells were incubated for 2-3 minutes to 72 hours in the presence of Cy3-crotamine, under concentrations between 10 μM and 0.01 μM, or as control, just in the presence of the dye agent Cy3 diluted in 1 ml PBS (control). In in vivo assays, 1 ml of 1 μM Cy3-crotamine or the pure control dye agent Cy3 (1 ml) in PBS were intraperitoneally injected into a mouse (line CD-1). After 3 hours, cells from the bone marrow (mixed cell population), spleen and peritoneal liquid (mixed cell population) were isolated. Cells from the peritoneal liquid adhered to the microscope slides for one hour in RPMI medium supplemented with 10% FCS and no antibiotics at 37° C., under humid atmosphere and 5% CO2. In all assays, cells were washed twice with cold solutions of 0.1 M PBS, pH 7.4, fixed with 3.7% formaldehyde in PBS for fifteen minutes and washed twice with PBS. Microscope slides were prepared in the PBS/glycerol (1:1) solution. Alternatively, non-fixed cells were washed twice with PBS and observed in the confocal microscope.
as §1

3T3 cell line = assay: Transfection of GFP plasmid DNA by crotamine peptide fragments; type: cell-based, mouse; settings: for treatment time giving the best result: 24 and 48 hours tested
Description: 3T3 cells (spontaneously immortalized primary mouse fibroblasts) or COS-7 (cells derived from kidney of African green monkey) were plated (1.5×10^5) in 6-wells plate (dimension of 6×35 mm), containing DMEM culture medium with 10% fetal bovine serum (FBS) and […] L-glutamine, with no antibiotics, 1 or 2 days before the transfection until reaching 60% to 80% confluence of the plate. Transfection was performed in DMEM medium ([…]) with 2% FBS and 80 or 100 μM chloroquine. Aggregates (crotamine plus 2 μg DNA in 0.2 ml HBM) were added in each well, on the cells in culture. After five hours of incubation at 37° C., under humid atmosphere and 5% CO2, the medium was substituted with another one containing 10% FBS. In the control culture wells, DNA was added in the same concentration and they were processed in the same way of experimental samples. After 24 and 48 hours, cells were washed with PBSA and fixed with 3.7% formaldehyde. The transfection medium was substituted with DMEM medium, containing 10% FBS, and the transgenic expression was then evaluated 24 to 48 hours after the transfection. The efficiency of transfection as determined by DNA-peptide aggregates was compared with that obtained by using lipofectamine, following routine protocol.
Two peptides were synthesized based on crotamine sequence, e.g. two sequences corresponding to fragments of crotamine, i.e. Crot2-18 ([…] (SEQ ID NO: 3)), herewithin designated as peptide 1, and Crot27-39 ([…] (SEQ ID NO: 4)), herewithin designated as peptide 2. The ability and efficiency of these two peptides to transfect cells in vitro and in vivo were analysed. The same protocol which was used for natural crotamine, as described in Example 9 was followed: Peptides were mixed with the plasmid DNA containing the gene coding for GFP (green fluorescent protein). After forming the complex with DNA, peptides were put on Petri dishes containing 3T3 cell line and left in the CO2 oven for 24 and 48 hours. Subsequently, cells were fixed and the result of transfection was analysed by confocal microscopy. As controls, the same cells were transfected by using Lipofectamin, as well as the crotamine molecule with 42 amino acid residues.

[2] = subcutaneous injection of B16F10
[3] = three hours after intraperitoneal injection, CD-1 mice

## Cy3-crotamine: crotamine conjugated to the fluorescent dye Cy3, a cyanine derivative (YKQCHKKGGHCFPKEKICLPPSSDFGKMDCRWRWKCCKKGSG; disulfide (positions not given here); not fully specified (bridges); ends not checked; also: Cy3 dye label, site not given here; UniProt Q9PWF3 23-64, looked up)
mice
  time to typical paralysis response of the hind legs after injection: less than 15 minutes
B16F10 cells tumor; endovenous injection of B16F10
  fluorescent signal inside the cell mass of B16F10 cells tumor: strong fluorescent signal
B16F10 cells tumor; [2]
  fluorescent signal inside the cell mass of B16F10 cells tumor: strong fluorescent signal
  localization in tumor cells (overlay with DAPI): observed in the nucleus of the cells
blastocyts
  fluorescence in blastocysts (confocal microscopy): intense fluorescence
centrosome
  marking of the centrosome cycle: functions as a marker for the centrosome cycle
[1]; FIG. 5E-G
  fluorescence in cytoplasm of mouse megakaryocyte: weak fluorescence
[1]; cells pretreated with non-labeled crotamine, megakaryocyte, FIG. 5H
  fluorescence after pretreatment with non-labeled crotamine: Strong fluorescence restricted to the cytoplasm
[1]; living cells, FIG. 3A-C
  signal in cytoplasm of living cells of the peritoneal liquid: strong
  signal in nucleus of living cells of the peritoneal liquid: moderate
[1]; [3]
  signals on cells from the murine bone marrow: strong signals
  signals on cytoplasm and nucleus of cells from the peritoneal liquid: strong signals

## KMDCRWRWKCCKK [peptide 2]
3T3 cell line
  signals from actively proliferating 3T3 cells compared with the original crotamine: no distinctive signals
3T3 cell line; 3T3 cells
  treatment time giving the best result: 48 h

## KQCHKKGGHCFPKEKIC [peptide 1]
3T3 cell line
  signals from actively proliferating 3T3 cells compared with the original crotamine: no distinctive signals
3T3 cell line; 3T3 cells
  treatment time giving the best result: 48 h
3T3 cell line; 3T3 cells, in comparison with peptide 2, confocal microscopy
  green fluorescence corresponding to GFP expression: more intense green fluorescence
